Where two headings read alike, the source gives them in different places.
What was measured:
[1] = test system: resting anal sphincter pressure; test: Diltiazem dose ranging study on healthy volunteers, eight channel water perfused manometer; assay type: in vivo, human
Source text: Concentrations of diltiazem cream used were 0.1%, 0.5%, 1%, 2%, 5% and 10%. […] The maximal effect, at which the mean resting anal pressure was lowered by 28% (P<0.0001), was produced by 2% w/w cream (See FIG. 1).

chronic anal fissures [2] = test: Open study of diltiazem cream in patients with anal fissures; assay type: in vivo, human
Source text: 2% diltiazem cream from example 2 was applied to the anus three times daily for 8 weeks to treat patients suffering from chronic anal fissures (in an uncontrolled, open, pilot study). To date, 7 patients were studied and followed up between 2 to 5 weeks. 5 patients have had complete resolution of symptoms, of whom 3 have complete and 2 partial healing of the fissure. In four of these 5 patients there has been a reduction of the maximum resting anal sphincter pressure to within normal limits. The last patient, though symptom free, continues to have a high anal resting pressure.
2 patients have only had two weeks of treatment and one is symptom free after this short period, whilst the other still has occasional pain. It is too early to comment on healing of fissures in these two patients.

[3] = test system: internal anal resting pressure; settings: given orally at 60 mg; cited from earlier work
[4] = test system: mean anal resting pressure; test: Study of example 4 repeated using oral diltiazem
[5] = test system: resting anal sphincter pressure; test: Bethanechol dose ranging study in healthy volunteers; assay type: in vivo, human
Source text: Bethanechol cream at concentrations of 0.05%, 0.1%, 0.5% and 1% w/w bethanechol were made up in accordance with example 1. The compositions were studied following initial experimentation in an open way to determine a clinically effective dose range. […] Maximal effect was produced by application of 0.1% bethanechol and higher concentrations of the cream produced no additional effect. At 0.1% w/w bethanechol, the mean resting pressure was reduced from about 110 cm to about 85 cm H2O (about 25% decrease). A typical ‘one inch’ application of this cream from the tube is equivalent to 400 mcg of bethanechol.

chronic anal fissures [6] = test: Open study of bethanechol cream in patients with chronic anal fissures; assay type: in vivo, human; settings: 0.1% cream three times daily
Source text: The 0.1% bethanechol cream of example 3 was applied to the anus three times daily for an eight week course to treat patients suffering from chronic anal fissures (in an uncontrolled, open, pilot study). To date, 6 patients have been treated and followed up for 3 to 5 weeks. Four patients have had complete resolution of symptoms, of whom 3 have complete and 1 partial healing of the fissure. In all of these 4 patients there has been a reduction of the maximum resting anal sphincter pressure to within normal limits. One patient discovered they were pregnant and treatment was discontinued. The last patient has had no relief and remains symptomatic after 4 weeks' follow up.

[7] = test system: maximum resting pressures in the anal canal; settings: after 1 hour, patients with anal fissures; cited from earlier work
[8] = test system: internal anal resting pressure; settings: topical use; cited from earlier work
[9] = 2% cream three times daily, among the 5 patients with complete resolution of symptoms
[10] = among the four patients with complete resolution of symptoms

## COc1ccc([C@@H]2Sc3ccccc3N(CCN(C)C)C(=O)[C@@H]2OC(C)=O)cc1 [diltiazem]
[1]; 2% w/w cream, topical to anus, ten healthy volunteers, maximal effect, P<0.0001
  mean resting anal pressure lowered by: 28%
[1]; topical cream 0.1%, 0.5%, 1%, 2%, 5% and 10%
  effect on resting anal sphincter pressure: dose dependent reduction
[1]; topical diltiazem, healthy volunteers (FIG. 2: 1% w/w gel)
  effect of a single application sustained for: 3 to 5 h
Chronic anal fissures [2]; 2% cream three times daily, 7 patients studied, follow up 2 to 5 weeks
  patients with complete resolution of symptoms: 5 patients
Chronic anal fissures [2]; [9]
  patients with complete healing of the fissure: 3 patients
  patients with partial healing of the fissure: 2 patients
Chronic anal fissures [2]; 2% cream three times daily, of the 5 symptom-free patients
  patients with reduction of the maximum resting anal sphincter pressure to within normal limits: four
Chronic anal fissures [2]; 2% cream, of the 2 patients with only two weeks of treatment
  patients symptom free after two weeks of treatment: one
[3]
  effect on internal anal resting pressure: reduce internal anal resting pressure
[4]; 60 mg oral once a day
  effect on mean anal resting pressure: no notable effect
[4]; 60 mg oral twice a day
  patients who noticed postural dizziness: two
[4]; 60 mg oral twice a day, P=0.008
  mean anal resting pressure reduced by: 17%

## CC(C[N+](C)(C)C)OC(N)=O (centres unmarked) [bethanechol]
[5]; 0.1% w/w bethanechol topical, healthy volunteers
  decrease of mean resting pressure: about 25%
[5]; 0.1% w/w bethanechol topical, healthy volunteers, reduced from about 110 cm
  mean resting pressure after application: about 85 cm H2O
[5]; topical 0.05%, 0.1%, 0.5% and 1% w/w
  effect on resting anal sphincter pressure: dose dependent reduction
[5]; topical bethanechol, healthy volunteers (FIG. 4: 0.1% w/w gel)
  effect of a single application sustained from: 3 to 5 h
[5]; topical, 0.05%, 0.1%, 0.5% and 1% w/w tested, higher concentrations no additional effect
  concentration producing the maximal effect on resting anal sphincter pressure: 0.1%
Chronic anal fissures [6]; 6 patients treated, follow up 3 to 5 weeks
  patients with complete resolution of symptoms: Four
Chronic anal fissures [6]; [10]
  patients with complete healing of the fissure: 3 patients
  patients with partial healing of the fissure: 1 patients
Chronic anal fissures [6]; of the 4 symptom-free patients
  patients with reduction of the maximum resting anal sphincter pressure to within normal limits: 4 patients

## O=C(NC1CCN(CCc2c[nH]c3ccccc23)CC1)c1ccccc1 [indoramin]
[7]
  reduction of maximum resting pressures in the anal canal: 35.8%

## O=[N+]([O-])OCC(CO[N+](=O)[O-])O[N+](=O)[O-] [glyceryl trinitrate]
[8]
  effect on internal anal resting pressure: reduces the internal anal resting pressure

Reference: patent publication US20040028752A1, “Topical pharmaceutical composition comprising a cholinergic agent or a calcium channel blocker” (S.L.A. Pharma AG., priority 2002, published 2004)
